Experimental data taken from article PMC9454848, “BMS-986158, a Small Molecule Inhibitor of the Bromodomain and Extraterminal Domain Proteins, in Patients with Selected Advanced Solid Tumors: Results from a Phase 1/2a Trial” (Cancers, 2022).
“And” between values parts separate entries of the source, which are not always exact repeats. Identical values can stand only once. “Also recorded” adds a separate entry of the source. Marks after values point to notes of the source that are not given here.

Legend:
[1] = test system: patients with advanced solid tumors; test: ECG ΔQTcF exposure-response at single dose; assay type: in vivo
Method: Triplicate ECG measures were used to assess changes from baseline in the QT interval adjusted for heart rate using Fridericia’s formula (ΔQTcF) following a single dose of BMS-986158 at C1D1. ΔQTcF was evaluated in the context of exposure response for BMS-986158 and its metabolite of interest.
All treated patients who received ≥1 dose of BMS-986158 were evaluated in the safety population. […] All treated patients with available and sufficient serum or plasma samples for the corresponding analytes were included in the PK analyses. […] ECG parameters were evaluated in a categorical analysis, and linear mixed-effects regression modeling was used to describe the quantitative relationship between ΔQTcF and time-matched serum concentrations of BMS-986158 or its metabolite at a single dose.

advanced solid tumors = test: Preliminary antitumor activity (RECIST 1.1 best overall response, ORR, PFS, OS); assay type: in vivo, human
Method: Best overall response was defined as a complete response (CR), partial response (PR), stable disease (SD), or progressive disease per RECIST 1.1 (solid tumors). […] Patients who had SD or better as their best overall response were classified as having achieved clinical benefit. These criteria must have been met at 1 time point and ≥1 subsequent time point(s) (the first of which was within 28 days of the initial time point). PFS was determined as the time from the first dose of study medication to the date of the first objective documentation of tumor progression or death due to any cause. All treated patients who received ≥1 dose of BMS-986158 were evaluated in the safety population. […] All treated patients with available and sufficient serum or plasma samples for the corresponding analytes were included in the PK analyses. […] ECG parameters were evaluated in a categorical analysis, and linear mixed-effects regression modeling was used to describe the quantitative relationship between ΔQTcF and time-matched serum concentrations of BMS-986158 or its metabolite at a single dose. Descriptive summary statistics, including means and 95% CIs, were calculated using the Clopper-Pearson method for ORR and Kaplan–Meier method for PFS and OS. During dose escalation, an mTPI design targeted a 27% DLT rate to guide escalation decisions and the MTD selection. In the dose-escalation segment, the target enrollment was up to 30 patients per schedule and 3–13 DLT-evaluable patients at a dose level, with an aim to determine the MTD. The totality of the data, including PK, pharmacodynamics, and patient overall safety, including at lower dose levels, was also used to select the RP2D.

CCR2 mRNA = test: Change from baseline in gene expression, CCR2; assay type: in vivo, human; conditions: patients; single dose up to 4.5 mg and schedule A
Method: Summary changes from baseline in the expression of BET-regulated genes were assessed in tumor tissues and blood collected at baseline and multiple on-treatment time points after BMS-986158 administration following the 3 dosing schedules. The study also assessed summary percent changes from baseline in expression of BET-regulated genes in peripheral blood and tumors (such as HEXIM1 and C-MYC). Tissue and peripheral blood samples (at baseline and on treatment) were collected for genomic, transcriptomic, and epigenetic analyses (by DNA or mRNA) to assess pharmacodynamic changes in BET-regulated genes. These samples were analyzed using whole-exome sequencing, real-time quantitative polymerase chain reaction, and RNA-sequencing methods.
All treated patients with available biomarker measurements at baseline and ≥1 time point were included in the biomarker analyses. Blood and tumor tissue samples were collected at baseline, during treatment, and at end of treatment for biomarker analysis. Markers of selected BET-regulated genes (e.g., HEXIM1) were analyzed with summary statistics for percent changes in expression from available matched pre- and on-treatment samples over time relative to baseline. Statistically significant changes in gene expression were determined using the Benjamini–Hochberg procedure to calculate an adjusted p value with an α level of 0.05.

[2] = Schedule A (5 days on, 2 days off), n = 46
[3] = Schedule B (14 days on, 7 days off), n = 8
[4] = Schedule C (7 days on, 14 days off), n = 29

In the case of `Cc1nnn(C)c1-c1cnc2c3ccc(C(C)(C)O)cc3n([C@H](c3ccccc3)C3CCOCC3)c2c1` [BMS-986158], the “Effect on ΔQTcF” value ([1]; single dose of BMS-986158) is reported as “neither BMS-986158 nor its metabolite had a statistically significant effect; also recorded: not found to cause significant QTc prolongation”, the “Predicted increase in ΔQTcF at highest observed Cmax” value ([1]; single dose, linear mixed-effects model) is reported as under 5 ms and the “Patients with clinical benefit” value (advanced solid tumors; 4.5-mg dose on schedule A (9/14)) is reported as 64%. The OS rate (advanced solid tumors; 6 months, Schedule A) was 52.6%, the OS rate (advanced solid tumors; 6 months, Schedule C) was 48.4% and the OS rate, n (95% CI) (advanced solid tumors; 6 months, Schedule A (5 days on, 2 days off), n = 46) was 52.6%. For the same compound, the OS rate, n (95% CI) (advanced solid tumors; 6 months, Schedule C (7 days on, 14 days off), n = 29) was 48.4%, the OS rate (advanced solid tumors; 12 months, Schedule A) was 34.3% and the OS rate (advanced solid tumors; 12 months, Schedule C) was 30.8%. The OS rate, n (95% CI) (advanced solid tumors; 12 months, Schedule A (5 days on, 2 days off), n = 46) was 34.3%, the OS rate, n (95% CI) (advanced solid tumors; 12 months, Schedule C (7 days on, 14 days off), n = 29) was 30.8% and the “PFS rate, range depending on treatment schedule” value (advanced solid tumors; 24 weeks) was 13.5–42.9%. The PFS rate, n (95% CI) (advanced solid tumors; 24 weeks, Schedule A (5 days on, 2 days off), n = 46) was 18.1%, the PFS rate, n (95% CI) (advanced solid tumors; 24 weeks, Schedule B (14 days on, 7 days off), n = 8) was 42.9% and the PFS rate, n (95% CI) (advanced solid tumors; 24 weeks, Schedule C (7 days on, 14 days off), n = 29) was 13.5%. The “PFS rate, range depending on treatment schedule” value (advanced solid tumors; 48 weeks) was 6.8–14.3%, the PFS rate, n (95% CI) (advanced solid tumors; 48 weeks, Schedule A (5 days on, 2 days off), n = 46) was 10.3% and the PFS rate, n (95% CI) (advanced solid tumors; 48 weeks, Schedule B (14 days on, 7 days off), n = 8) was 14.3%. The PFS rate, n (95% CI) (advanced solid tumors; 48 weeks, Schedule C (7 days on, 14 days off), n = 29) was 6.8%, the “Patients with clinical benefit” value (advanced solid tumors; NUT carcinoma (4/7)) was 57.1% and the “Best overall response unable to be determined” value (“Best overall response unable” below) (advanced solid tumors; Schedule A) was 17.4%. The Stable disease rate (advanced solid tumors; Schedule A) was 26.1%, the “Best overall response by investigator: complete response” value (advanced solid tumors; [2]) was 0 n (%) and the “Best overall response by investigator: partial response” value (advanced solid tumors; [2]) was 2 (4.3) ^a n (%). For the same compound, the “Best overall response by investigator: progressive disease” value (advanced solid tumors; [2]) was 24 (52.2) n (%), the “Best overall response by investigator: stable disease” value (advanced solid tumors; [2]) was 12 (26.1) n (%) and the “Best overall response by investigator: unable to determine” value (from here on “Best overall response … to determine”) (advanced solid tumors; [2]) was 8 (17.4) ^b n (%). For the same compound, the “Median OS (95% CI)” value (advanced solid tumors; [2]) was 7.52 (4.17–11.99) months, the “Median PFS (95% CI)” value (advanced solid tumors; [2]) was 8.29 (7.14–9.71) weeks and the “ORR (95% CI)” value (advanced solid tumors; [2]) was 2%. The “Patients with a partial response” value (advanced solid tumors; Schedule A, 4.5-mg starting dose (ovarian cancer, NUT carcinoma)) was 2 patients, the “Patients achieving clinical benefit” value (advanced solid tumors; Schedule A, all doses) was 30% and 30.4% and the “Best overall response unable” value (advanced solid tumors; Schedule B) was 12.5%. For the same compound, the Stable disease rate (advanced solid tumors; Schedule B) was 37.5%, the “Best overall response by investigator: complete response” value (advanced solid tumors; [3]) was 0 n (%) and the “Best overall response by investigator: partial response” value (advanced solid tumors; [3]) was 0 n (%). For the same compound, the “Best overall response by investigator: progressive disease” value (advanced solid tumors; [3]) was 4 (50.0) n (%), the “Best overall response by investigator: stable disease” value (advanced solid tumors; [3]) was 3 (37.5) n (%) and the “Best overall response … to determine” value (advanced solid tumors; [3]) was 1 (12.5) ^c n (%). The “Median OS (95% CI)” value (advanced solid tumors; [3]) was 9.23 (2.79–11.83) months, the “Median PFS (95% CI)” value (advanced solid tumors; [3]) was 8.43 (5.57–40.14) weeks and the “ORR (95% CI)” value (advanced solid tumors; [3]) was 0 (0.0–36.9) %. For the same compound, the “Best overall response unable” value (advanced solid tumors; Schedule C) was 17.2%, the Stable disease rate (advanced solid tumors; Schedule C) was 31.0% and the “Best overall response by investigator: complete response” value (advanced solid tumors; [4]) was 0 n (%). For the same compound, the “Best overall response by investigator: partial response” value (advanced solid tumors; [4]) was 0 n (%), the “Best overall response by investigator: progressive disease” value (advanced solid tumors; [4]) was 15 (51.7) n (%) and the “Best overall response by investigator: stable disease” value (advanced solid tumors; [4]) was 9 (31.0) n (%). The “Best overall response … to determine” value (advanced solid tumors; [4]) was 5 (17.2) ^d n (%), the “Median OS (95% CI)” value (advanced solid tumors; [4]) was 5.32 (3.52–11.83) months and the “Median PFS (95% CI)” value (advanced solid tumors; [4]) was 9.00 (7.86–13.29) weeks. For the same compound, the “ORR (95% CI)” value (advanced solid tumors; [4]) was 0 (0.0–11.9) %, the “Patients with SD or better” value (advanced solid tumors; across treatment schedules and doses (n = 26)) was 31.3% and the “Patients with clinical benefit” value (advanced solid tumors; adenoid cystic carcinoma (4/4)) was 100%. For the same compound, the Complete response (advanced solid tumors; all schedules) was “No patients experienced a CR”, the “Tumor marker CA 125 level after treatment initiation” value (advanced solid tumors; one patient, ovarian cancer, 4.5 mg schedule A, 3032 U/mL prior to C1D1) was “decreased and remained stable; also recorded: decreased and stabilized” and the “Duration of partial response on study treatment” value (advanced solid tumors; one patient, serous papillary ovarian cancer, 4.5 mg schedule A) was 155 days. For the same compound, the “Reduction in tumor burden” value (advanced solid tumors; one patient, serous papillary ovarian cancer, 4.5 mg schedule A, PR at day 170) was 35%, the “PFS, range depending on treatment schedule” value (advanced solid tumors; schedules A, B, C) was 8.29–9.00 weeks and the “Progressive disease as best response, range across treatment schedules” value (advanced solid tumors; schedules A, B, C) was 50.0–52.2%. For the same compound, the “Patients with clinical benefit” value (advanced solid tumors; uveal melanoma (3/5)) was 60% and the “CCR2 mRNA expression change from baseline” value (CCR2 mRNA) was “transcriptional suppression; also recorded: dose-dependent expression changes”.
